According to patent EP1707622A1, “USE OF COMPOUNDS THAT REGULATE HDAC6 TUBULIN DEACETYLASE ACTIVITY IN THE PREPARATION OF PHARMACEUTICAL COMPOSITIONS, METHOD OF IDENTIFYING THE AFOR[…], SAID PHARMACEUTICAL COMPOUNDS AND APPLICATIONS THEREOF” (UNIVERSIDAD AUTONOMA DE MADRID CIUDAD UNIVERSITARIA …, priority 2004, dated 2005):
Where a SMILES comes first, the peptide text is derived from it. [ ]: non-standard residue; d: D form. Aoe = N[C@@H](CCCCCC(=O)[C@@H]1CO1)C(=O)O

Test system: J77 cells
Experiment: CD3 clustering in the central region of the immunological synapse
Type: cell-based, human
Conditions: J77 cells, relative to cells transfected with the deficient mutant or lymphocytes treated with TSA; Figure 5B

SMILES: CCCC(=O)[O-].[Na+] [sodium butyrate]
- percentage of mature synapses: neither trapoxin B nor sodium butyrate modified it in a significant manner

SMILES: O=C1N[C@@H](Cc2ccccc2)C(=O)N2CCC[C@@H]2C(=O)N[C@@H](CCCCCC(=O)[C@@H]2CO2)C(=O)N[C@H]1Cc1ccccc1 [trapoxin B] (cyclo(FF[dP][Aoe]))
- percentage of mature synapses: neither trapoxin B nor sodium butyrate modified it in a significant manner
